Tested on: 276233-004-R-J1-PDC complex spheroid viability
Test: Anticancer human tumor 276233-004-R-J1-PDC patient-derived colon adenocarcinoma cell line growth inhibition [GQUAD]
Conditions: for IC50: curve of first compound; for viability, T/C: stronger effect = lower value
Method in brief: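 Viability of tumor cells grown as complex spheroids with endothelial and stromal cells, exposed to drug combinations. Top concentration at or near clinical Cmax (else 10 microM), diluted in half-log increments.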

[1] = second compound 0.0316 µM, first compound 0.0316 µM
[2] = second compound 0.0316 µM, first compound 0.316 µM
[3] = second compound 0.1 µM, first compound 0.0316 µM
[4] = second compound 0.1 µM, first compound 0.316 µM
[5] = second compound 0.316 µM, first compound 0.0316 µM
[6] = second compound 0.316 µM, first compound 0.316 µM
[7] = second compound 1 µM, first compound 0.0316 µM
[8] = second compound 1 µM, first compound 0.316 µM
[9] = second compound 3.16 µM, first compound 0.0316 µM
[10] = second compound 3.16 µM, first compound 0.316 µM
[11] = second compound 10 µM, first compound 0.0316 µM
[12] = second compound 10 µM, first compound 0.316 µM
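Note: spheroids exposed to drugs for seven days.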
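Throughout, for viability, T/C: 100% = DMSO vehicle control viability.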

Question: How did the IC50 (second compound 0.0316 µM) turn out when `Cc1[nH]c2ccccc2c1CCNCc1ccc(/C=C/C(=O)NO)cc1` + CN(C)c1ccc(Nc2c3ccc(NC(=O)CCN4CCCC4)cc3nc3cc(NC(=O)CCN4CCCC4)ccc23)cc1 was run?
Answer: Its IC50 is 0.178 µM.

Question: What about the IC50 (second compound 0.1 µM) of the same molecule?
Answer: The IC50 was 0.169 µM.

Question: And the IC50 (second compound 0.316 µM)?
Answer: Its IC50 is 0.166 µM.

Question: What about the IC50 (second compound 1 µM) of the same molecule?
Answer: The IC50 was 0.0477 µM.

Question: What about the IC50 (second compound 3.16 µM) of the same molecule?
Answer: The IC50 was < 0.000999 µM.

Question: What about the IC50 (second compound 10 µM) of the same molecule?
Answer: Its IC50 is < 0.000999 µM.

Question: What about the viability, T/C (second compound 0.0316 µM, first compound 0.000999 µM) of the same molecule?
Answer: The viability, T/C was 99.1%.

Question: And the viability, T/C (second compound 0.0316 µM, first compound 0.00316 µM)?
Answer: Its viability, T/C is 79%.

Question: What about the viability, T/C (second compound 0.0316 µM, first compound 0.00999 µM) of the same molecule?
Answer: The viability, T/C was 80.2%.

Question: What about the viability, T/C [1] of the same molecule?
Answer: Its viability, T/C is 84%.

Question: And the viability, T/C (second compound 0.0316 µM, first compound 0.0999 µM)?
Answer: The viability, T/C was 77.5%.

Question: What about the viability, T/C [2] of the same molecule?
Answer: Its viability, T/C is 23.2%.

Question: What about the viability, T/C (second compound 0.1 µM, first compound 0.000999 µM) of the same molecule?
Answer: Its viability, T/C is 87.7%.

Question: And the viability, T/C (second compound 0.1 µM, first compound 0.00316 µM)?
Answer: The viability, T/C was 90.7%.

Question: And the viability, T/C (second compound 0.1 µM, first compound 0.00999 µM)?
Answer: Its viability, T/C is 60.1%.

Question: And the viability, T/C [3]?
Answer: The viability, T/C was 71.3%.

Question: What about the viability, T/C (second compound 0.1 µM, first compound 0.0999 µM) of the same molecule?
Answer: Its viability, T/C is 79%.

Question: What about the viability, T/C [4] of the same molecule?
Answer: Its viability, T/C is 17.2%.

Question: And the viability, T/C (second compound 0.316 µM, first compound 0.000999 µM)?
Answer: Its viability, T/C is 57.8%.

Question: What about the viability, T/C (second compound 0.316 µM, first compound 0.00316 µM) of the same molecule?
Answer: The viability, T/C was 78.7%.

Question: And the viability, T/C (second compound 0.316 µM, first compound 0.00999 µM)?
Answer: The viability, T/C was 59.6%.

Question: What about the viability, T/C [5] of the same molecule?
Answer: Its viability, T/C is 50%.

Question: And the viability, T/C (second compound 0.316 µM, first compound 0.0999 µM)?
Answer: The viability, T/C was 85%.

Question: What about the viability, T/C [6] of the same molecule?
Answer: Its viability, T/C is 29.6%.

Question: And the viability, T/C (second compound 1 µM, first compound 0.000999 µM)?
Answer: The viability, T/C was 58.2%.

Question: What about the viability, T/C (second compound 1 µM, first compound 0.00316 µM) of the same molecule?
Answer: Its viability, T/C is 54.2%.

Question: What about the viability, T/C (second compound 1 µM, first compound 0.00999 µM) of the same molecule?
Answer: The viability, T/C was 47.9%.

Question: What about the viability, T/C [7] of the same molecule?
Answer: Its viability, T/C is 64.3%.

Question: And the viability, T/C (second compound 1 µM, first compound 0.0999 µM)?
Answer: Its viability, T/C is 38.9%.

Question: What about the viability, T/C [8] of the same molecule?
Answer: The viability, T/C was 21.8%.

Question: What about the viability, T/C (second compound 3.16 µM, first compound 0.000999 µM) of the same molecule?
Answer: The viability, T/C was 45.3%.

Question: And the viability, T/C (second compound 3.16 µM, first compound 0.00316 µM)?
Answer: The viability, T/C was 47.9%.

Question: And the viability, T/C (second compound 3.16 µM, first compound 0.00999 µM)?
Answer: The viability, T/C was 42.6%.

Question: And the viability, T/C [9]?
Answer: Its viability, T/C is 40.3%.

Question: And the viability, T/C (second compound 3.16 µM, first compound 0.0999 µM)?
Answer: Its viability, T/C is 28.1%.

Question: What about the viability, T/C [10] of the same molecule?
Answer: Its viability, T/C is 8.05%.

Question: What about the viability, T/C (second compound 10 µM, first compound 0.000999 µM) of the same molecule?
Answer: Its viability, T/C is 29.1%.

Question: What about the viability, T/C (second compound 10 µM, first compound 0.00316 µM) of the same molecule?
Answer: Its viability, T/C is 39.6%.

Question: What about the viability, T/C (second compound 10 µM, first compound 0.00999 µM) of the same molecule?
Answer: Its viability, T/C is 38.8%.

Question: And the viability, T/C [11]?
Answer: The viability, T/C was 29.3%.

Question: And the viability, T/C (second compound 10 µM, first compound 0.0999 µM)?
Answer: Its viability, T/C is 34%.

Question: And the viability, T/C [12]?
Answer: The viability, T/C was 3.25%.

Question: How did the IC50 (second compound 0.0316 µM) turn out when `CC1COCCN1c1cc(-c2ccnn2C)c2ccnc(-c3ccn[nH]3)c2n1` (centres undefined) + Cc1cnc(CNC(=O)c2c(=O)c3ccc(N4CCCN(C)CC4)nc3n3c2sc2ccccc23)cn1 was run?
Answer: Its IC50 is > 10 µM.

Question: And the IC50 (second compound 0.1 µM)?
Answer: The IC50 was > 10 µM.

Question: And the IC50 (second compound 0.316 µM)?
Answer: The IC50 was 3.7 µM.

Question: What about the IC50 (second compound 1 µM) of the same molecule?
Answer: The IC50 was 4.44 µM.

Question: What about the IC50 (second compound 3.16 µM) of the same molecule?
Answer: The IC50 was 3.32 µM.

Question: What about the IC50 (second compound 10 µM) of the same molecule?
Answer: The IC50 was 1.07 µM.

Question: What about the viability, T/C [1] of the same molecule?
Answer: The viability, T/C was 99.5%.

Question: And the viability, T/C (second compound 0.0316 µM, first compound 0.1 µM)?
Answer: Its viability, T/C is 57.5%.

Question: And the viability, T/C [2]?
Answer: The viability, T/C was 78.7%.

Question: And the viability, T/C (second compound 0.0316 µM, first compound 1 µM)?
Answer: The viability, T/C was 56%.

Question: And the viability, T/C (second compound 0.0316 µM, first compound 3.16 µM)?
Answer: Its viability, T/C is 63.2%.

Question: And the viability, T/C (second compound 0.0316 µM, first compound 10 µM)?
Answer: The viability, T/C was 42.5%.

Question: And the viability, T/C [3]?
Answer: Its viability, T/C is 79.6%.

Question: What about the viability, T/C (second compound 0.1 µM, first compound 0.1 µM) of the same molecule?
Answer: Its viability, T/C is 86.5%.

Question: And the viability, T/C [4]?
Answer: The viability, T/C was 63.2%.

Question: What about the viability, T/C (second compound 0.1 µM, first compound 1 µM) of the same molecule?
Answer: The viability, T/C was 67.2%.

Question: And the viability, T/C (second compound 0.1 µM, first compound 3.16 µM)?
Answer: Its viability, T/C is 56.6%.

Question: And the viability, T/C (second compound 0.1 µM, first compound 10 µM)?
Answer: The viability, T/C was 55.1%.

Question: What about the viability, T/C [5] of the same molecule?
Answer: The viability, T/C was 73.1%.

Question: And the viability, T/C (second compound 0.316 µM, first compound 0.1 µM)?
Answer: Its viability, T/C is 67.1%.

Question: What about the viability, T/C [6] of the same molecule?
Answer: The viability, T/C was 65.9%.

Question: What about the viability, T/C (second compound 0.316 µM, first compound 1 µM) of the same molecule?
Answer: The viability, T/C was 58.9%.

Question: And the viability, T/C (second compound 0.316 µM, first compound 3.16 µM)?
Answer: The viability, T/C was 51.3%.

Question: What about the viability, T/C (second compound 0.316 µM, first compound 10 µM) of the same molecule?
Answer: Its viability, T/C is 41.8%.

Question: What about the viability, T/C [7] of the same molecule?
Answer: The viability, T/C was 68.9%.

Question: What about the viability, T/C (second compound 1 µM, first compound 0.1 µM) of the same molecule?
Answer: The viability, T/C was 64.7%.

Question: What about the viability, T/C [8] of the same molecule?
Answer: The viability, T/C was 67.4%.

Question: What about the viability, T/C (second compound 1 µM, first compound 1 µM) of the same molecule?
Answer: Its viability, T/C is 58.4%.

Question: And the viability, T/C (second compound 1 µM, first compound 3.16 µM)?
Answer: The viability, T/C was 52.3%.

Question: And the viability, T/C (second compound 1 µM, first compound 10 µM)?
Answer: The viability, T/C was 43.5%.

Question: And the viability, T/C [9]?
Answer: The viability, T/C was 63.1%.

Question: And the viability, T/C (second compound 3.16 µM, first compound 0.1 µM)?
Answer: Its viability, T/C is 57.3%.

Question: What about the viability, T/C [10] of the same molecule?
Answer: Its viability, T/C is 62%.

Question: And the viability, T/C (second compound 3.16 µM, first compound 1 µM)?
Answer: Its viability, T/C is 55.8%.

Question: And the viability, T/C (second compound 3.16 µM, first compound 3.16 µM)?
Answer: Its viability, T/C is 49.7%.

Question: What about the viability, T/C (second compound 3.16 µM, first compound 10 µM) of the same molecule?
Answer: Its viability, T/C is 41.1%.

Question: And the viability, T/C [11]?
Answer: The viability, T/C was 53.4%.

Question: And the viability, T/C (second compound 10 µM, first compound 0.1 µM)?
Answer: Its viability, T/C is 50.6%.

Question: And the viability, T/C [12]?
Answer: Its viability, T/C is 51%.

Question: And the viability, T/C (second compound 10 µM, first compound 1 µM)?
Answer: The viability, T/C was 47.2%.

Question: What about the viability, T/C (second compound 10 µM, first compound 3.16 µM) of the same molecule?
Answer: The viability, T/C was 49.2%.

Question: What about the viability, T/C (second compound 10 µM, first compound 10 µM) of the same molecule?
Answer: The viability, T/C was 38.5%.
